A word on the IC50: it is the point on the concentration scale where inhibition reaches its midpoint. A higher IC50 goes with lower potency.

Consider 1 molecule from ChEMBL document CHEMBL1141767, “Lignans from bark of Larix olgensis var. koreana” (J Nat Prod, 2005).

Each structure is given as a SMILES string. Converted amounts (≈) assume the structure as drawn.

Holding throughout (assay type): functional, cell-based
The subject of one experiment is K562. Briefly: Cytotoxicity against human K562 cells after 72 hrs by MTT assay. As to conditions: K562, 72 h. Background: Formazan colour is commonly taken as a measure of viable cells.
Experiment [1] can be described thus: Cytotoxicity against human SGH44 cells after 72 hrs by MTT assay. The conditions noted are these: SGH44, 72 h.
Another experiment relates to HCT-8. Briefly: Cytotoxicity against human HCT8 cells after 72 hrs by MTT assay. The conditions noted are these: HCT-8, 72 h.
Another experiment relates to A549. Description: Cytotoxicity against human A549 cells after 72 hrs by MTT assay. As to conditions: A549, 72 h.
Experiment [2] in a line: Cytotoxicity against human PC3M cells after 72 hrs by MTT assay. The conditions noted are these: PC-3M.

`COc1cc(C[C@@H]2CO[C@@H](c3ccc(O)c(OC)c3)[C@@H]2COC(=O)/C=C/c2ccc(O)cc2)ccc1O`: the IC50 in the experiment on K562 turned out to be 2.9 µg/mL (≈ 5.72 µM); in experiment [1], 21.4 µg/mL (≈ 42.2 µM); in the experiment on HCT-8 it was 32.9 µg/mL (≈ 64.9 µM); in the experiment on A549 it was 33.8 µg/mL (≈ 66.7 µM); in experiment [2] it was 28 µg/mL (≈ 55.3 µM).
